Experimental data reported in ChEMBL document CHEMBL3997785, “Optimization of 2-Anilino 4-Amino Substituted Quinazolines into Potent Antimalarial Agents with Oral in Vivo Activity” (J Med Chem, 2017).
Values after ≈ are worked out from the molar mass of the structure shown. Active and inactive are the calls of the source. The calls are words filed in the database; no cut-off is given here.

Tests used:
[1] = test system: Plasmodium falciparum; assay: Antimalarial activity against Plasmodium falciparum 3D7 asexual blood stage infected in human erythrocytes incubated for 72 hrs by LDH assay; type: functional, cell-based; settings: 3D7, 72 h
[2] = test system: Plasmodium falciparum; assay: Antimalarial activity against synchronous culture of Plasmodium falciparum 3D7 ring stage parasite infected in human erythrocytes incubated for 24 hrs followed by compound wash out and measured after 24 hrs by NanoGlo-reagent based bioluminescence assay; type: functional, cell-based; settings: 3D7, 24 h
[3] = test system: Plasmodium falciparum; assay: Antimalarial activity against synchronous culture of Plasmodium falciparum 3D7 ring stage parasite infected in human erythrocytes incubated for 6 hrs followed by compound wash out and measured after 24 hrs by NanoGlo-reagent based bioluminescence assay; type: functional, cell-based
[4] = test system: Plasmodium falciparum; assay: Antimalarial activity against Plasmodium falciparum NF54 harboring pfs16-LUC-GFP ring stage gametocytes after 24 hrs by MitoTracker Red staining based confocal microscopy; type: functional; settings: NF54, 24 h
[5] = test system: Plasmodium falciparum; assay: Antimalarial activity against synchronous culture of Plasmodium falciparum 3D7 ring stage parasite infected in human erythrocytes incubated for 3 hrs followed by compound wash out and measured after 24 hrs by NanoGlo-reagent based bioluminescence assay; type: functional, cell-based
[6] = test system: Plasmodium falciparum; assay: Antimalarial activity against Plasmodium falciparum NF54 harboring pfs16-LUC-GFP late stage 4 to 5 gametocytes after 48 hrs by MitoTracker Red staining based confocal microscopy; type: functional; settings: NF54, 48 h
[7] = test system: Liver; assay: Drug metabolism in mouse liver microsomes assessed as mono-oxygenation at 6th position of quinazoline at 1 uM after 60 mins in presence of NADPH by LC-MS method; type: ADME, microsome; settings: 1 h
[8] = test system: Plasmodium falciparum; assay: Antimalarial activity against synchronous culture of Plasmodium falciparum 3D7 infected in human erythrocytes assessed as development arrest at ring stage of asexual life cycle leading to parasite death at 10 times EC50 up to 48 hrs by Giemsa-staining based assay relative to control; type: functional, cell-based
[9] = test system: Plasmodium falciparum; assay: Antimalarial activity against Plasmodium falciparum 3D7 infected in human erythrocytes assessed as arrest at trophozoite stage of asexual life cycle leading to parasite death at 10 times EC50 up to 48 hrs by Giemsa-staining based assay relative to control; type: functional, cell-based
[10] = test system: Plasmodium falciparum; assay: Antimalarial activity against chloroquine and mefloquine resistant Plasmodium falciparum W2mef infected in human erythrocytes incubated for 72 hrs by LDH assay; type: functional, cell-based
[11] = test system: Liver; assay: Drug metabolism in human liver microsomes assessed as N-demethylation of methyl piperidine or piperazine at 1 uM after 60 mins in presence of NADPH by LC-MS method; type: ADME, microsome; settings: 1 h
[12] = Intrinsic clearance in mouse liver microsomes at 1 uM in presence of NADPH by LC-MS method; type: ADME, microsome; settings: read-out: CLH
[13] = test system: Plasmodium falciparum; assay: Antimalarial activity against Plasmodium falciparum NF54 harboring pfs16-LUC-GFP early stage 1 to 3 gametocytes after 48 hrs by MitoTracker Red staining based confocal microscopy; type: functional; settings: NF54, 48 h
[14] = Ratio of EC50 for Plasmodium falciparum NF54-pfs16-LUC-GFP early stage gametocytes to EC50 for Plasmodium falciparum 3D7 asexual blood stage infected in human erythrocytes; type: functional
[15] = test system: HepG2; assay: Cytotoxicity against human HepG2 cells assessed as growth inhibition after 48 hrs by Cell Titer-Glo assay; type: cell-based; settings: HepG2, 48 h
[16] = Selectivity index, ratio of EC50 for human HepG2 cells to EC50 for Plasmodium falciparum 3D7 asexual blood stage infected in human erythrocytes; type: toxicity, cell-based; settings: read-out: Ratio EC50
[17] = Aqueous solubility of the compound at pH 6.5 by nephelometry; type: physicochemical
[18] = test system: Plasma; assay: Drug uptake in Plasmodium berghei ANKA infected Swiss black mouse plasma at 20 mg/kg, ip measured after 20 hrs; type: ADME, organism-based; settings: in vivo
[19] = Half life in human liver microsomes at 1 uM in presence of NADPH by LC-MS method; type: ADME, microsome
[20] = Aqueous solubility of the compound at pH 2 by nephelometry; type: physicochemical
[21] = Hepatic extraction ratio in human liver microsomes at 1 uM in presence of NADPH by LC-MS method; type: ADME, microsome; settings: read-out: ERH
[22] = Hepatic extraction ratio in mouse liver microsomes at 1 uM in presence of NADPH by LC-MS method; type: ADME, microsome; settings: read-out: ERH
[23] = Half life in mouse liver microsomes at 1 uM in presence of NADPH by LC-MS method; type: ADME, microsome
[24] = test system: Liver; assay: Drug metabolism in human liver microsomes assessed as mono-oxygenation at 6th position of quinazoline at 1 uM after 60 mins in presence of NADPH by LC-MS method; type: ADME, microsome; settings: 1 h
[25] = Intrinsic clearance in human liver microsomes at 1 uM in presence of NADPH by LC-MS method; type: ADME, microsome; settings: read-out: CLH
[26] = test system: Plasma; assay: Drug uptake in Plasmodium berghei ANKA infected Swiss black mouse plasma at 20 mg/kg, po via gavage measured after 20 hrs; type: ADME, organism-based; settings: in vivo
[27] = test system: Liver; assay: Drug metabolism in mouse liver microsomes assessed as N-demethylation of methyl piperidine or piperazine at 1 uM after 60 mins in presence of NADPH by LC-MS method; type: ADME, microsome; settings: 1 h
[28] = Ratio of EC50 for Plasmodium falciparum NF54-pfs16-LUC-GFP ring stage gametocytes to EC50 for Plasmodium falciparum 3D7 asexual blood stage infected in human erythrocytes; type: functional
[29] = test system: Plasmodium berghei; assay: Antimalarial activity against Plasmodium berghei ANKA infected Swiss black mouse at 20 mg/kg, ip administered for 4 days starting 4 hrs post infection by microscopic method; type: functional
[30] = test system: Plasmodium berghei; assay: Antimalarial activity against Plasmodium berghei ANKA infected Swiss black mouse model at 20 mg/kg administered via oral gavage for 4 days starting 4 hrs post infection by microscopic method; type: functional
[31] = test system: Liver; assay: Drug metabolism in human liver microsomes assessed as O-demethylation of 6 and 7 methoxy groups at 1 uM after 60 mins in presence of NADPH by LC-MS method; type: ADME, microsome; settings: 1 h
[32] = test system: Liver; assay: Drug metabolism in mouse liver microsomes assessed as O-demethylation of 6 and 7 methoxy groups at 1 uM after 60 mins in presence of NADPH by LC-MS method; type: ADME, microsome; settings: 1 h
[33] = test system: Liver; assay: Drug metabolism in mouse liver microsomes assessed as hydro defluorination at 1 uM after 60 mins in presence of NADPH by LC-MS method; type: ADME, microsome; settings: 1 h
[34] = test system: Liver; assay: Drug metabolism in human liver microsomes assessed as hydro defluorination at 1 uM after 60 mins in presence of NADPH by LC-MS method; type: ADME, microsome; settings: 1 h

Row | Structure (SMILES) | EC50 [1] [nM] | EC50 [4] [nM] | EC50 [6] [µM] | Drug metabolism [7] | Activity [8] | Activity [9] | EC50 [10] [nM] | Drug metabolism [11] | microsomal CLint at 1 µM [12] [µL/min/mg] | EC50 [13] [nM] | Ratio EC50 [14] | EC50 [15] [µM] | selectivity ratio [16] | solubility kinetic [17] [µM] | half-life at 1 µM [19] [min] | solubility kinetic [20] [µM] | hepatic extraction ratio at 1 µM [21] | hepatic extraction ratio at 1 µM [22] | half-life at 1 µM [23] [min] | microsomal CLint at 1 µM [25] [µL/min/mg] | also measured
1 | CCN(CC)CCCC(C)Nc1ccnc2cc(Cl)ccc12 (centres undefined) [CHLOROQUINE] | 23 | 20 | > 40 | – | – | – | – | – | – | – | – | – | – | – | – | – | – | – | – | – | EC50 [2]: 286 nM; EC50 [3]: 643 nM; EC50 [5]: 608 nM
2 | CN1CCC(Nc2nc(Nc3ccc(Cl)c(F)c3)nc3ccccc23)CC1.Cl.Cl | 28 | 220 | 2.7 | Metabolite_Detected | Active | inactive | 61 | Metabolite_Detected | 9 | 554 | 15 - 25 | 5.1 | 179 | 4.2 to 8.4 | 181 | > 90 | 0.28 | 0.16 | 192 | 10 | Drug uptake [18]: Active; Drug metabolism [24]: Metabolite_Detected; Drug uptake [26]: Active; Drug metabolism [27]: Metabolite_Detected; Ratio EC50 [28]: 10
3 | CN1CCN(CCNc2nc(Nc3ccc(Cl)c(F)c3)nc3ccccc23)CC1.Cl.Cl | 27 | 207 | 4 | Metabolite_Detected | Active | inactive | 57 | Metabolite_Detected | 37 | 453 | 15 - 25 | 7.5 | 275 | 10.9 to 22 | 77 | > 90 | 0.47 | 0.44 | 47 | 23 | Activity [29]: >98%; Activity [30]: >90%; EC50 [2]: 637 nM; Drug uptake [18]: Active; Activity [3]: Dose dependent effect; EC50 [3]: 3120 nM; Drug metabolism [24]: Metabolite_Detected; EC50 [5]: 3340 nM; Drug uptake [26]: Active; Drug metabolism [27]: Metabolite_Detected; Ratio EC50 [28]: 10
4 | COc1cc2nc(Nc3ccc(F)cc3)nc(NCc3ccccc3)c2cc1OC | 41 | – | – | – | – | – | – | – | 35 | – | – | 2.8 | 109 | 1.6 to 3.1 (≈ 0.647 to 1.25 µg/mL) | > 247 | 1.6 to 3.1 (≈ 0.647 to 1.25 µg/mL) | < 0.22 | 0.43 | 49 | < 7 | Drug metabolism [31]: Metabolite_Detected; Drug metabolism [32]: Metabolite_Detected
5 | COc1cc2nc(Nc3ccc(F)cc3)nc(NCC3CCCO3)c2cc1OC (centres undefined) | 57 | – | – | – | – | – | – | – | 72 | – | – | 5.5 | 96 | 3.1 to 6.3 (≈ 1.24 to 2.51 µg/mL) | 64 | 25 to 50 (≈ 9.96 to 19.9 µg/mL) | 0.52 | 0.61 | 24 | 27 | Drug metabolism [31]: Metabolite_Detected; Drug metabolism [32]: Metabolite_Detected
6 | CN1CCN(CCNc2nc(Nc3ccc(F)c(Cl)c3)nc3ccccc23)CC1.Cl.Cl | 26 | 179 | 3 | Metabolite_Detected | Active | inactive | 49 | Metabolite_Detected | 57 | 326 | 15 - 25 | 6.1 | 240 | 11.3 to 23 | > 255 | > 90 | < 0.22 | 0.55 | 30 | < 7 | Activity [29]: >98%; Activity [30]: >90%; EC50 [2]: 323 nM; Drug uptake [18]: Active; Activity [3]: Dose dependent effect; EC50 [3]: 2960 nM; Drug metabolism [33]: Metabolite_Detected; Drug metabolism [34]: Metabolite_Detected; Drug metabolism [24]: Metabolite_Detected; EC50 [5]: 2500 nM; Drug uptake [26]: Active; Drug metabolism [27]: Metabolite_Detected; Ratio EC50 [28]: 10
7 | CN1CCC(Nc2nc(Nc3ccc(F)c(Cl)c3)nc3ccccc23)CC1.Cl.Cl | 35 | 223 | 3.7 | Metabolite_Detected | Active | inactive | 54 | Metabolite_Detected | 12 | 515 | 15 - 25 | 5.1 | 145 | 11.3 to 23 | > 255 | > 90 | < 0.22 | 0.2 | 149 | < 7 | Activity [30]: Active; Drug uptake [18]: Active; Drug metabolism [33]: Metabolite_Detected; Drug metabolism [34]: Metabolite_Detected; Drug metabolism [24]: Metabolite_Detected; Drug uptake [26]: Active; Drug metabolism [27]: Metabolite_Detected; Ratio EC50 [28]: 10
